According to US8785655B2, “Ionic liquid solvents” (Dublin City University, priority 2009, dated 2014):

Experiments:
[1] = system: Pseudomonas aeruginosa CCM 1961; test: Screen against bacteria, MIC/IC80; type: cell-based; conditions: PA
[2] = system: Candida krusei ATCC 6258; test: In vitro antifungal activity, MIC by microdilution (NCCLS M27-A)
Experimental: (§1) In vitro antifungal activities of the compounds were evaluated on the collection of fungal strains deposited at the Department of Biological and Medical Sciences, Faculty of Pharmacy, Charles University, Czech Republic. All the isolates were maintained on Sabouraud dextrose agar prior to being tested.
(§2) Minimum inhibitory concentrations (MICs) were determined by the microdilution format of the NCCLS M27-A guidelines. […] RPMI 1640 (Sevapharma, Prague) medium supplemented with L-glutamine and buffered with 0.165 M morpholinepropanesulfonic acid to pH 7.0 was used as the test medium. The wells of the microdilution tray contained 100 μl of the RPMI 1640 medium with 2-fold serial dilutions of the compounds (1000 to 0.24 μmol/l for the new compounds) and 100 μl of inoculum suspension. Fungal inoculum in RPMI 1640 was prepared to give a final concentration of 5×103±0.2 cfu·ml-1. The trays were incubated at 35° C. and MICs were read visually for filamentous fungi and photometrically for yeasts as an optical density (OD) at 540 nm after 24 h and 48 h. The MICs were defined as 80% inhibition of the growth of control. MICs were determined twice and in duplicate. The deviations from the usually obtained were no higher than the nearest concentration value up and down the dilution scale.

[3] = system: Candida glabrata 20/l; test: as above; conditions: CG
Experimental: as §1, §2

[4] = system: Candida albicans ATCC 44859; test: as above
[5] = system: Staphylococcus epidermidis H 6966/08; test: Screen against bacteria, MIC/IC80; type: cell-based; conditions: SE
[6] = system: Candida parapsilosis ATCC 22019; test: In vitro antifungal activity, MIC by microdilution (NCCLS M27-A); conditions: CP
Experimental: as §1, §2

[7] = system: Klebsiella pneumoniae J 14368/08 ESBL-positive; test: Screen against bacteria, MIC/IC80; type: cell-based; conditions: KP-E
[8] = system: Escherichia coli CCM4517; test: Screen against bacteria, MIC/IC80; type: cell-based; conditions: EC
[9] = system: Absidia corymbifera 272; test: In vitro antifungal activity, MIC by microdilution (NCCLS M27-A); conditions: AC
Experimental: as §1, §2

[10] = system: Enterococcus sp. J 14365/08; test: Screen against bacteria, MIC/IC80; type: cell-based; conditions: EF
[11] = system: Klebsiella pneumoniae D 11750/08; test: Screen against bacteria, MIC/IC80; type: cell-based; conditions: KP
[12] = system: Staphylococcus aureus H 5996/08 Methiciline-resistant; test: Screen against bacteria, MIC/IC80; type: cell-based; conditions: MRSA
[13] = system: Staphylococcus aureus CCM 4516/08; test: Screen against bacteria, MIC/IC80; type: cell-based; conditions: SA
[14] = system: Candida krusei E28; test: In vitro antifungal activity, MIC by microdilution (NCCLS M27-A)
[15] = system: Trichophyton mentagrophytes 445; test: as above; conditions: TM
[16] = system: Candida tropicalis 156; test: as above; conditions: CT
Experimental: as §1, §2

[17] = system: Candida lusitaniae 2446/l; test: as above; conditions: CL
[18] = system: Aspergillus fumigatus 231; test: as above; conditions: AF
[19] = system: Candida albicans ATCC 90028; test: as above
Experimental: as §1, §2

Substance	MIC/IC80 ([1]; 24 h)	MIC/IC80 ([1]; 48 h)	MIC/IC80 ([2]; CK1, 24 h)	MIC/IC80 ([2]; CK1, 48 h)	MIC/IC80 ([3]; 24 h)	MIC/IC80 ([3]; 48 h)	MIC/IC80 ([4]; CA1, 24 h)	MIC/IC80 ([4]; CA1, 48 h)	MIC/IC80 ([5]; 24 h)	MIC/IC80 ([5]; 48 h)	MIC/IC80 ([6]; 24 h)	MIC/IC80 ([6]; 48 h)	MIC/IC80 ([7]; 24 h)	MIC/IC80 ([7]; 48 h)	MIC/IC80 ([8]; 24 h)	MIC/IC80 ([8]; 48 h)	MIC/IC80 ([9]; 24 h)	MIC/IC80 ([9]; 48 h)	MIC/IC80 ([10]; 24 h)	MIC/IC80 ([10]; 48 h)	further results
R-3-methyl-1-[1-(ethoxyethoxycarbonyl)-1-phenylmethoxycarbonylmethyl]imidazolium octyl sulphate [KG301]	>1000 µM	>1000 µM	>1000 µM	>1000 µM	>1000 µM	>1000 µM	>1000 µM	>1000 µM	>1000 µM	>1000 µM	>1000 µM	>1000 µM	>1000 µM	>1000 µM	>1000 µM	>1000 µM	>1000 µM	>1000 µM	>1000 µM	>1000 µM	MIC/IC80 ([11]; 24 h): >1000 µM; MIC/IC80 ([11]; 48 h): >1000 µM; MIC/IC80 ([12]; 24 h): >1000 µM; MIC/IC80 ([12]; 48 h): >1000 µM; MIC/IC80 ([13]; 24 h): >1000 µM; MIC/IC80 ([13]; 48 h): >1000 µM; MIC/IC80 ([14]; CK2, 24 h): >1000 µM; MIC/IC80 ([14]; CK2, 48 h): >1000 µM; MIC/IC80 ([15]; 72 h): >1000 µM; MIC/IC80 ([15]; 120 h): >1000 µM; MIC/IC80 ([16]; 24 h): >1000 µM; MIC/IC80 ([16]; 48 h): >1000 µM; MIC/IC80 ([17]; 24 h): >1000 µM; MIC/IC80 ([17]; 48 h): >1000 µM; MIC/IC80 ([18]; 24 h): >1000 µM; MIC/IC80 ([18]; 48 h): >1000 µM; MIC/IC80 ([19]; CA2, 24 h): >1000 µM; MIC/IC80 ([19]; CA2, 48 h): >1000 µM
R-3-methyl-1-[1-(methoxycarbonyl)-1-phenylmethoxycarbonylmethyl]imidazolium octyl sulphate [KG87]	>1000 µM	>1000 µM	1000 µM	>1000 µM	>1000 µM	>1000 µM	>1000 µM	>1000 µM	>1000 µM	>1000 µM	>1000 µM	>1000 µM	>1000 µM	>1000 µM	>1000 µM	>1000 µM	>1000 µM	>1000 µM	>1000 µM	>1000 µM	MIC/IC80 ([11]; 24 h): >1000 µM; MIC/IC80 ([11]; 48 h): >1000 µM; MIC/IC80 ([12]; 24 h): >1000 µM; MIC/IC80 ([12]; 48 h): >1000 µM; MIC/IC80 ([13]; 24 h): >1000 µM; MIC/IC80 ([13]; 48 h): >1000 µM; MIC/IC80 ([14]; CK2, 24 h): 1000 µM; MIC/IC80 ([14]; CK2, 48 h): >1000 µM; MIC/IC80 ([15]; 72 h): 1000 µM; MIC/IC80 ([15]; 120 h): >1000 µM; MIC/IC80 ([16]; 24 h): >1000 µM; MIC/IC80 ([16]; 48 h): >1000 µM; MIC/IC80 ([17]; 24 h): >1000 µM; MIC/IC80 ([17]; 48 h): >1000 µM; MIC/IC80 ([18]; 24 h): >1000 µM; MIC/IC80 ([18]; 48 h): >1000 µM; MIC/IC80 ([19]; CA2, 24 h): >1000 µM; MIC/IC80 ([19]; CA2, 48 h): >1000 µM
R-3-methyl-1-[1-(pentoxycarbonyl)-1-methylmethoxycarbonylmethyl]imidazolium octyl sulphate [KG171]	>1000 µM	>1000 µM	>1000 µM	>1000 µM	>1000 µM	>1000 µM	>1000 µM	>1000 µM	>1000 µM	>1000 µM	>1000 µM	>1000 µM	>1000 µM	>1000 µM	>1000 µM	>1000 µM	>1000 µM	>1000 µM	>1000 µM	>1000 µM	MIC/IC80 ([11]; 24 h): >1000 µM; MIC/IC80 ([11]; 48 h): >1000 µM; MIC/IC80 ([12]; 24 h): >1000 µM; MIC/IC80 ([12]; 48 h): >1000 µM; MIC/IC80 ([13]; 24 h): >1000 µM; MIC/IC80 ([13]; 48 h): >1000 µM; MIC/IC80 ([14]; CK2, 24 h): >1000 µM; MIC/IC80 ([14]; CK2, 48 h): >1000 µM; MIC/IC80 ([15]; 72 h): >1000 µM; MIC/IC80 ([15]; 120 h): >1000 µM; MIC/IC80 ([16]; 24 h): >1000 µM; MIC/IC80 ([16]; 48 h): >1000 µM; MIC/IC80 ([17]; 24 h): >1000 µM; MIC/IC80 ([17]; 48 h): >1000 µM; MIC/IC80 ([18]; 24 h): >1000 µM; MIC/IC80 ([18]; 48 h): >1000 µM; MIC/IC80 ([19]; CA2, 24 h): >1000 µM; MIC/IC80 ([19]; CA2, 48 h): >1000 µM
